Values of other authors, collected in PMC6920808, “Preclinical Evaluation of UDCA-Containing Oral Formulation in Mice for the Treatment of Wet Age-Related Macular Degeneration” (Pharmaceutics, 2019).

Legend:
laser-treated rat model = test system: laser-treated rat model; parameters: method as in PMID 20565307; settings: intraperitoneally injected, ref [4]
retina = test system: retina; parameters: method as in earlier work; settings: intravitreally injected, dose higher than 5 μg of TUDCA (5 mg/mL), Balb/C mice, ref [33]
[1] = parameters: method as in PMID 6479887, PMID 30319399; settings: ref [17],[18]

Row | A- and B-wave amplitudes in the ERG and outer nuclear layer thickness (retina) | pKa [1] | Compound | CNV size and vascularity (laser-treated rat model) | early VEGF elevation in the retina (laser-treated rat model)
1 | reduced | – | C[C@H](CCC(=O)NCCS(=O)(=O)O)[C@H]1CC[C@H]2[C@@H]3[C@@H](O)C[C@@H]4C[C@H](O)CC[C@]4(C)[C@H]3CC[C@]12C [TUDCA, tauroursodeoxycholic acid] | reduction | effectively suppress
2 | – | around 5.0 | C[C@H](CCC(=O)O)[C@H]1CC[C@H]2[C@@H]3[C@@H](O)C[C@@H]4C[C@H](O)CC[C@]4(C)[C@H]3CC[C@]12C [UDCA, 3α,7β-dihydroxy-5β-cholanoic acid] | reduction | effectively suppress
